Measurements reported in patent US8604016B2, “Heterocyclic inhibitors of glutaminase” (Calithera Biosciences Inc., priority 2011, dated 2013).

What was measured:
Caco-2 cell monolayers = assay: Caco-2 Permeability Assay (bidirectional); type: in vitro ADME
Text: (§1) Caco-2 cells are commonly used in a confluent monolayer on a cell culture insert filter. When cultured in this format and under specific conditions, the cells become differentiated and polarized such that their phenotype, morphologically and functionally resembles the enterocytes lining the small intestine. The cell monolayer provides a physical and biochemical barrier to the passage of small molecules, and is widely used across the pharmaceutical industry as an in vitro model of the human small intestinal mucosa to predict the absorption of orally administered drugs (Hidalgo et al., Gastroenterology, 1989; Artursson, J. Pharm. Sci., 1990). The correlation between the in vitro apparent permeability (P ? app) across Caco-2 monolayers and the in vivo absorption is well established (Artursson et al., Biochem. Biophys. Res. Comm., 1991).
(§2) The present assay was used to determine the bidirectional permeability of the compounds of the invention through Caco-2 cell monolayers. Caco-2 cells were grown in confluent monolayers where the media of both the apical (A) and basolateral (B) sides were at pH 7.4. Compounds were dosed at 1 μM in the presence of 200 μM Lucifer Yellow, on the apical side (A→B) or the basolateral side (B→A) for assessment, in duplicate.
(§3) The absorption potential of compounds were classified as either Low (P-app <1×10^−6 cm/s) or High (P-app >1×10^−6 cm/s).

[1] = Caco-2 Permeability Assay (bidirectional); type: in vitro ADME; details: human; for recovery at 120 min, 1 μM / Papp A→B at 120 min, 1 μM / Papp B→A at 120 min, 1 μM: pH 7.4; for efflux ratio at 120 min, 1 µM / Papp A→B at 120 min, 1 μM / Papp B→A at 120 min, 1 μM / permeability class (Low/High absorption potential) at 120 min, 1 µM: Caco-2; for efflux ratio at 120 min, 1 µM: (Papp B→A)/(Papp A→B); for Papp A→B at 120 min, 1 μM: Direction A→B; for Papp A→B at 120 min, 1 μM / Papp B→A at 120 min, 1 μM: unit not given (thresholds in 10^−6 cm/s); for Papp B→A at 120 min, 1 μM: Direction B→A; for permeability class (Low/High absorption potential) at 120 min, 1 µM: read-out: Permeability Classification
Text: as §1, §2, §3

[2] = target: T1, recombinant form of Glutaminase 1 (GAC) (Homo sapiens, UniProt O94925); assay: Recombinant Enzyme Assay (GAC coupled to GDH, NADH absorbance, no preincubation); type: biochemical; details: no preincubation; read-out: GAC Delta N2 IC50 no preinc
Summary of the method: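 GAC (4 nM) in Tris-HCl pH 8.0 with 150 mM K2HPO4, EDTA, BSA, DTT, plus 4 units/ml GDH and 4 mM ADP, without preincubation. Absorbance at 340 nm was read kinetically for 15 min at 20° C. Slopes (mAU/min) were compared with DMSO-only and control-compound wells on the same plate.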

[3] = target: T1, recombinant form of Glutaminase 1 (GAC); assay: Recombinant Enzyme Assay - Time Dependence (60 minutes enzyme/compound preincubation); type: biochemical
Procedure: The enzyme/compound mix was sealed with sealing foil (USA Scientific) and allowed to incubate, with mild agitation, for 60 minutes at 20° C. Enzymatic reaction was started with the addition of 50 μL of substrate solution (50 mM Tris-HCl pH 8.0, 0.2 mM EDTA, 150 mM K2HPO4, 0.1 mg/ml BSA, 1 mM DTT, 20 mM L-glutamine, 2 mM NAD^+, and 10 ppm antifoam) and read in a Molecular Devices M5 plate reader at 20° C. The plate reader was configured to read absorbance (λ=340 nm) in kinetic mode for 15 minutes. Data was recorded as milli-absorbance units per minute and slopes were compared to a control compound and a DMSO-only control on the same plate. Compounds with slopes less than the DMSO control were considered inhibitors and plate variability was assessed using the control compound.

[4] = read-out: GAC Delta N2 IC50 60 min preinc
[5] = read-out: GAC Delta N2 IC50 60 min

SMILES | recovery at 120 min, 1 μM ([1]; Caco-2, pH 7.4, Direction A→B) [%] | recovery at 120 min, 1 μM ([1]; Caco-2, pH 7.4, Direction B→A) [%] | Papp A→B at 120 min, 1 μM [1] [×10⁻⁶ cm/s] | Papp B→A at 120 min, 1 μM [1] [×10⁻⁶ cm/s] | permeability class (Low/High absorption potential) at 120 min, 1 µM [1] [×10⁻⁶ cm/s] | IC50 [3, 5] [nM] | Significant Efflux (Caco-2 cell monolayers) | also measured
O=C(Cc1cccc(OC(F)(F)F)c1)Nc1ccc(CCCCc2nnc(NC(=O)Cc3cccc(OC(F)(F)F)c3)s2)nn1 [Compound 660] | 56 | 68 | 0.61 | 2.37 | < 1 | – | Yes (efflux ratios being significant when greater than or equal to 3 when the Papp (B→A) was greater than or equal to 1×10^−6 cm/s) | efflux ratio at 120 min, 1 µM [1]: 3.9
O=C(Cc1cccc(OC(F)(F)F)c1)Nc1ccc(CCCCc2nnc(NC(=O)Cc3cccc(F)c3)s2)nn1 [Compound 679] | 34 | 42 | 7.59 | 19.6 | > 1 | – | No (efflux ratios being significant when greater than or equal to 3 when the Papp (B→A) was greater than or equal to 1×10^−6 cm/s) | efflux ratio at 120 min, 1 µM [1]: 2.6
O=C(Nc1nnc(CCCCc2nnc(NC(=O)[C@@H](O)c3ccccc3)s2)s1)[C@@H](O)c1ccccc1 [Compound 92] | – | – | – | – | – | – | – | IC50 [2]: 380 nM; IC50 [3, 4]: 140 nM
O=C(Cc1ccccc1)Nc1nnc(CCCCc2nnc(NC(=O)C(O)c3cccc(Cl)c3)s2)s1 (stereo not drawn) [Compound 527] | – | – | – | – | – | – | – | IC50 [2]: 130 nM; IC50 [3, 4]: 24 nM
CC(C)(C)OC(=O)NCc1cccc(CC(=O)Nc2nnc(CCCCc3ccc(NC(=O)Cc4ccccc4)nn3)s2)c1 [Compound 339] | 73 | 80 | 2.39 | 41.6 | > 1 | – | Yes (efflux ratios being significant when greater than or equal to 3 when the Papp (B→A) was greater than or equal to 1×10^−6 cm/s) | –
CC(C(=O)Nc1nnc(CCCCc2ccc(NC(=O)Cc3ccccc3)nn2)s1)c1ccccc1 (stereo not drawn) [Compound 616] | 65 | 76 | 8.23 | 49.5 | > 1 | – | Yes (efflux ratios being significant when greater than or equal to 3 when the Papp (B→A) was greater than or equal to 1×10^−6 cm/s) | efflux ratio at 120 min, 1 µM [1]: 6
O=C(Cc1ccccc1Cl)Nc1ccc(CCCCc2nnc(NC(=O)Cc3ccccc3F)s2)nn1 [Compound 533] | 41 | 52 | 4.94 | 37.5 | > 1 | – | Yes (efflux ratios being significant when greater than or equal to 3 when the Papp (B→A) was greater than or equal to 1×10^−6 cm/s) | efflux ratio at 120 min, 1 µM [1]: 7.6
O=C(Nc1nnc(CCCCc2nnc(NC(=O)C(O)c3cccc(Br)c3)s2)s1)C(O)c1cccc(Br)c1 (stereo not drawn) [Compound 288] | – | – | – | – | – | – | – | IC50 [2]: 670 nM; IC50 [3, 4]: 40 nM
O=C(Cc1cccc(Br)c1)Nc1nnc(CCSCCc2nnc(NC(=O)Cc3cccc(Br)c3)s2)s1 [Compound 270] | – | – | – | – | – | – | – | IC50 [2]: 7400 nM; IC50 [3, 4]: > 5000 nM
CC(C)(C)OC(=O)N1CCN(Cc2cccc(CC(=O)Nc3nnc(CCSCc4nnc(NC(=O)Cc5cccc(CN6CCN(C(=O)OC(C)(C)C)CC6)c5)s4)s3)c2)CC1 [Compound 275] | – | – | – | – | – | – | – | IC50 [2]: 2200 nM; IC50 [3, 4]: 150 nM
O=C(Cc1ccccc1)Nc1ccc(CCCCc2nnc(NC(=O)C(O)c3cccc(Cl)c3)s2)nn1 (stereo not drawn) [Compound 318] | 73 | 82 | 2.45 | 44.5 | > 1 | – | Yes (efflux ratios being significant when greater than or equal to 3 when the Papp (B→A) was greater than or equal to 1×10^−6 cm/s) | efflux ratio at 120 min, 1 µM [1]: 18
CC(NC(=O)OC(C)(C)C)c1cccc(CC(=O)Nc2ccc(CCCCc3nnc(NC(=O)C(C)c4ccccc4)s3)nn2)c1 (stereo not drawn) [Compound 603] | – | – | – | – | – | 9 | – | –
O=C(Nc1nnc(CCCCc2nnc(NC(=O)C(O)c3cccc(Cl)c3)s2)s1)C(O)c1cccc(Cl)c1 (stereo not drawn) [Compound 306] | – | – | – | – | – | – | – | IC50 [2]: 520 nM; IC50 [3, 4]: 31 nM
CCCC(=O)OCN(C(=O)Cc1ccccc1)c1nnc(CCCCc2ccc(NC(=O)Cc3cccc(OC(F)(F)F)c3)nn2)s1 [Compound 629] | – | – | – | – | – | > 20000 | – | –
CC(C(=O)Nc1nnc(CCCCc2ccc(NC(=O)Cc3cccc(CNC(=O)OC(C)(C)C)c3)nn2)s1)c1ccccc1 (stereo not drawn) [Compound 489] | – | – | – | – | – | 8 | – | –
CN(Cc1cccc(CC(=O)Nc2nnc(CCCCc3nnc(NC(=O)Cc4ccccc4)s3)s2)c1)C(=O)OC(C)(C)C [Compound 391] | – | – | – | – | – | – | – | IC50 [3, 4]: 7 nM
CCOC(=O)NCc1cc(C(C)C(=O)Nc2nnc(CCCCc3ccc(NC(=O)Cc4ccccc4)nn3)s2)ccc1F (stereo not drawn) [Compound 574] | – | – | – | – | – | 6 | – | –
O=C(Cc1ccccc1)Nc1ccc(CCCCc2nnc(NC(=O)CC3=CN4CCCN=C4S3)s2)nn1 [Compound 511] | – | – | – | – | – | 580 | – | –

Continued, in another order:

recovery at 120 min, 1 μM ([1]; Caco-2, pH 7.4, Direction A→B) [%] | recovery at 120 min, 1 μM ([1]; Caco-2, pH 7.4, Direction B→A) [%] | Papp A→B at 120 min, 1 μM [1] [×10⁻⁶ cm/s] | Papp B→A at 120 min, 1 μM [1] [×10⁻⁶ cm/s] | permeability class (Low/High absorption potential) at 120 min, 1 µM [1] [×10⁻⁶ cm/s] | IC50 [3, 5] [nM] | SMILES | Significant Efflux (Caco-2 cell monolayers) | also measured
117 | 101 | 1.38 | 45 | > 1 | – | O=C(Cc1ccccc1)Nc1ccc(CCCCc2nnc(NC(=O)Cc3ccccn3)s2)nn1 [Compound 354] | Yes (efflux ratios being significant when greater than or equal to 3 when the Papp (B→A) was greater than or equal to 1×10^−6 cm/s) | –
44 | 57 | 3.75 | 24.7 | > 1 | – | CC(C(=O)Nc1ccc(CCCCc2nnc(NC(=O)Cc3cccc(CNC(=O)OC(C)(C)C)c3)s2)nn1)c1ccccc1 (stereo not drawn) [Compound 436] | Yes (efflux ratios being significant when greater than or equal to 3 when the Papp (B→A) was greater than or equal to 1×10^−6 cm/s) | efflux ratio at 120 min, 1 µM [1]: 6.6
– | – | – | – | – | 7 | CC(C(=O)Nc1nnc(CCCCc2ccc(NC(=O)Cc3cccc(CNC(=O)CC(C)(O)C(F)(F)F)c3)nn2)s1)c1ccccc1 (stereo not drawn) [Compound 607] | – | –
– | – | – | – | – | 740 | CC(C)NC(=O)Nc1nnc(CCCCc2nnc(NC(=O)Cc3ccccc3)s2)s1 [Compound 438] | – | –
60 | 67 | 8.52 | 51 | > 1 | – | O=C(Cc1cccc(OC(F)(F)F)c1)Nc1ccc(CCCCc2nnc(NC(=O)[C@H](O)c3ccccc3)s2)nn1 [Compound 705] | Yes (efflux ratios being significant when greater than or equal to 3 when the Papp (B→A) was greater than or equal to 1×10^−6 cm/s) | efflux ratio at 120 min, 1 µM [1]: 6
– | – | – | – | – | 6 | O=C(Cc1ccccc1F)Nc1ccc(CCCCc2nnc(NC(=O)Cc3ccccc3Cl)s2)nn1 [Compound 566] | – | –
– | – | – | – | – | 5 | CC(NC(=O)OC(C)(C)C)c1cc(CC(=O)Nc2nnc(CCCCc3ccc(NC(=O)Cc4ccccc4)nn3)s2)ccc1F (stereo not drawn) [Compound 653] | – | –
– | – | – | – | – | 15 | COC(C(=O)Nc1nnc(CCCCc2ccc(NC(=O)Cc3cccc(CNC(=O)CC(O)C(F)(F)F)c3)nn2)s1)c1ccccc1 (stereo not drawn) [Compound 604] | – | –
